Data from patent US9951183B2, “Amphiphilic blockcopolymers comprising reduction sensitive biodegradable polyesteramides” (DSM IP Assets B.V., priority 2014, dated 2018).

Assays:
HeLa cells [1] = assay: Cell viability MTT assay, HeLa; format: cell-based; settings: DOX 12.5 μg/mL
Experimental: HeLa and MCF-7 cells are plated in a 96-well plate (1×10^4 cells/well) using DMEM medium supplemented with 10% fetal bovine serum, 1% L-glutamine, antibiotics penicillin (100 IU/mL), and streptomycin (100 μg/mL) and incubation for 24 h. […] Then 3-(4,5-dimethylthiazol-2-yl)-2,5-diphenyl tetrazoliumbromide (MTT) solution in PBS (10 μL, 5 mg/mL) are added and incubated for another 4 h. The medium is aspirated, the MTT-formazan generated by live cells is dissolved in 150 μL of DMSO, and the absorbance at a wavelength of 490 nm of each well is measured using a microplate reader. The relative cell viability (%) is determined by comparing the absorbance at 490 nm with control wells containing only cell culture medium. Data are presented as average±SD (n=4).

HeLa cells [2] = assay: Cellular uptake and intracellular release of DOX (CLSM); format: cell-based; settings: DOX 12.5 μg/mL
Experimental: HeLa cells are plated on microscope slides in a 24-well plate (5×10^4 cells/well) under 5% CO2 atmosphere at 37° C. using Dulbecco's modified Eagle's medium (DMEM) supplemented with 10% fetal bovine serum, 1% L-glutamine, antibiotics penicillin (100 IU/mL), and streptomycin (100 μg/mL). […] After incubation at 37° C. and a humidified 5% CO2-containing atmosphere for 0.5, 2 or 4 h, the culture media are removed and the cells on microscope plates are washed three times with PBS. The cells are then fixed with 4% formaldehyde for 15 min and washed with PBS 3 times. The cell nuclei are stained with 4′,6-diamidino-2-phenylindole (DAPI, blue) for 15 min and washed with PBS 3 times.

## COc1cccc2c1C(=O)c1c(O)c3c(c(O)c1C2=O)C[C@@](O)(C(=O)CO)C[C@@H]3O[C@H]1C[C@H](N)[C@H](O)[C@H](C)O1 [free DOX, doxorubicin]
HeLa cells [1]; 24 h
  cell viability: 31.8%
HeLa cells [1]; 48 h
  cell viability: 19.1%
HeLa cells [2]
  intracellular distribution of DOX: mainly accumulated in cell nucleus
